Experimental data taken from patent US10703761B2, “Bile acid receptor modulators and methods of use thereof” (City of Hope, priority 2016, dated 2020).
“Also recorded” adds a separate entry of the source.

Key:
[1] = molecular target: T1, FXR (Homo sapiens, UniProt Q96RI1); experiment: GeneBLAzer cell-based FXR transactivation assay (FXR-UAS-bla HEK 293T cells)
T1 construct: the Gal4 DBD was fused to the LBD of FXR in this assay
T1 sequence (Q96RI1 262-486 limits assumed): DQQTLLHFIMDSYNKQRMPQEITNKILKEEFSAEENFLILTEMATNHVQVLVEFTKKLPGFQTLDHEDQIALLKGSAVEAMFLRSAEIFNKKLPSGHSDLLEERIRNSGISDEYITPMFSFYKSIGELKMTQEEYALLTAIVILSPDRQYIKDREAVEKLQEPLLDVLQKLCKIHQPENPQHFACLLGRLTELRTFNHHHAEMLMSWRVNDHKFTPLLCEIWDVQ
Method: To investigate the cellular activities of the novel berberine derivatives, we used a GeneBLAzer FXR cell-based assay, which detects the levels of a β-lactamase reporter controlled by a promoter containing the binding site of the DNA binding domain (DBD) of the GAL4 transcription factor; the Gal4 DBD was fused to the LBD of FXR in this assay. In typical test for agonists, DMSO (vehicle and negative control), 10 μM GW4064 (positive control), and titrations of GW4064, LCA or the 24 newly synthesized novel berberien derivatives analogs were mixed with GeneBLAzer FXR-UAS-bla HEK 293T cells. Reporter assays were performed after a 16 h incubation. […] For the experiments to evaluate the antagonistic activity, titrations of compounds were tested in the presence of 400 nM GW4064. […]
FXR transactivation assay was performed using GeneBLAzer FXR-UAS-bla HEK 293T cells (Invitrogen) as previously described with minor modifications. […] Plates were then incubated in the dark for 90 min at room temperature before measuring the fluorescent emissions at 460 nm and 535 nm (using excitation at 400 nm) with an Envision plate reader with bottom read capacity. […] The % Activation was calculated using Eq. 2.
[formula] […] The % Inhibition was calculated using Eq. 3. […]

[2] = molecular target: T2, FXR (Homo sapiens, UniProt Q96RI1); experiment: FXR luciferase reporter assay, transient transfection with a synthetic FXR responsive reporter plasmid in HEK293 cells; assay type: cell-based
T2 construct: expressed in transfected cells; host or cells: HEK293 (transient)
T2 sequence (Q96RI1 1-486): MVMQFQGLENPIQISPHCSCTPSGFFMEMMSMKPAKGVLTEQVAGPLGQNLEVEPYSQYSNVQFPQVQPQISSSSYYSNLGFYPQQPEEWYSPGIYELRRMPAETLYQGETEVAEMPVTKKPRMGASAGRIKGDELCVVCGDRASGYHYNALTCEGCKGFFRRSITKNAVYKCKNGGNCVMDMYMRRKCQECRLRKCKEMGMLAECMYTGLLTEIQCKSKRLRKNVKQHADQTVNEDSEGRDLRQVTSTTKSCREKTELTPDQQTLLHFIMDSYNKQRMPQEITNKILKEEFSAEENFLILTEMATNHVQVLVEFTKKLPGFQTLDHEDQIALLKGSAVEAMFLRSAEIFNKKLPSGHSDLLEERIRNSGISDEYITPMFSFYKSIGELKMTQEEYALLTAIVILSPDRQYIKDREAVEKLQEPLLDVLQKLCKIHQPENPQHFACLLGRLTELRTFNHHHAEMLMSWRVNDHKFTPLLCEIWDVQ
T2 sequence (P19793 1-462 partner): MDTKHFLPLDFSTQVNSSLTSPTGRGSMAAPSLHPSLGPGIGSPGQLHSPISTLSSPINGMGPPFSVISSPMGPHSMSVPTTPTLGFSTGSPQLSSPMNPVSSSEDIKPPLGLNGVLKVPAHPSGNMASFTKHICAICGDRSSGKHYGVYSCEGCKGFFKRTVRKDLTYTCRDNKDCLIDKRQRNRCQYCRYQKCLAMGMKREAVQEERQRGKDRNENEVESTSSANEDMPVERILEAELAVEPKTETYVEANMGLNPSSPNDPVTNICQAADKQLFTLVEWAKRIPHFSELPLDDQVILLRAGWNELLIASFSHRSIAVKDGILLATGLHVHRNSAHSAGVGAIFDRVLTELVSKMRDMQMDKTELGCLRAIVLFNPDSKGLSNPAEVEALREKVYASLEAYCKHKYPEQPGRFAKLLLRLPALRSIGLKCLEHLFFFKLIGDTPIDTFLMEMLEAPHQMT
Method: Effect of berberine derivatives and γ-aminobutyric acid derivative on FXR inhibition was initially assessed using transient transfections with a synthetic FXR responsive reporter plasmid. HEK 293 Cells were treated with vehicle alone or 100 μM CDCA with or without compounds, as indicated. Results are luciferase expression normalized using the β-gal internal control.
TGR5-reporting activity was evaluated by luciferase assay. Treatments were performed in quadruplicate and normalized with β-galactosidase. HEK293 cells were transfected with FXR and RXRα, and FXRE-containing luciferase construct. Cells were treated with 10 μM of indicated compounds; luciferase was measured and normalized with β-galactosidase.
To evaluate TGR5 activity of compounds, cells were transfected 100 ng pCRE-luc reporter along with pCMV-galactosidase (10 ng) as an internal control for normalization of transfection efficiency. Plasmids were complexed with […] of Fugene 6 reagent (Promega, Madison, Wis.) in OptiMEM (Invitrogen, Carlsbad, Calif.) and cells were transfected for 18 h. The following day, cells were treated with vehicle and appropriate ligand as indicated. Luciferase and β-galactosidase activities were assayed 6 h later using Luciferase Assay System (Promega) and Galacto-Star (Applied Biosystems, Foster City, Calif.) reagents, respectively, and a MLX luminometer (Dynex Technologies, Chantilly, Va.). To evaluate the FXR activity of compounds, HEK293 cells were transfected with 25 ng of farnesoid X receptor expression plasmid (pCMX-hFXR), 25 ng of retinoid X receptor expression plasmid (pCMXhRXR), 100 ng of reporter plasmid (pEcREx6-TK-Luc), and 10 ng of pCMV-b-galactosidase as an internal control in each well, using Fugene 6 reagent. Approximately 18 h after transfection, cells were incubated for 12 h with different concentrations of each.

Structure (SMILES)	melting point [°C]	FXR antagonist activity in cell-based FXR transactivation assay [1]	Inhibition of FXR activation by CDCA (FXR antagonism) ([2]; CDCA 100 μM, compounds 10 μM)	FXR activity of compound alone (agonism) ([2]; compound alone, compared with GW4064)
COc1ccc2cc3[n+](cc2c1NCCc1ccc(O)c(O)c1)CCc1cc2c(cc1-3)OCO2 [DY322, Berberine-Dopamine Hybrid]	198.4	identified as FXR antagonists	–	–
COc1ccc2cc3[n+](cc2c1NCc1cccc(B(O)O)c1)CCc1cc2c(cc1-3)OCO2 [DY323, Berberine-Phenylboronic Hybrid]	228.7	identified as FXR antagonists	–	–
O=C(O)CCCN1C(=O)c2ccccc2C1=O [DY419]	–	–	strongly inhibited FXR activation; also recorded: activated FXR receptor to exert FXR antagonistic biological function	no effect on FXR activity
